Test [1] can be described thus: Compound was tested for anti-HIV activity in MT-2/ IIIB cells and the ratio of the drug concentration (ID50) required to inhibit cell growth was reported. The test is classed as functional, Homo sapiens.
The subject of a further test is Hepatitis B virus. Description: Compound concentration required to inhibit the viral cell proliferation by 50% against HBV. It is filed as functional, organism-based.
The test system of test [2] is Human immunodeficiency virus. Description: Compound concentration required to inhibit the viral cell proliferation by 50% against HIV; Range = 0.1-0.2. The test is classed as functional, organism-based. The settings on record: Human immunodeficiency virus 1.
A further test concerns CCRF-CEM. Description: Compound concentration required to inhibit cell growth by 50% against CEM cells. The test is classed as functional. The settings on record: Homo sapiens, read-out: ID50 (the source's name).
Test [3] concerns Human immunodeficiency virus. Description: Compound concentration required to inhibit the viral cell proliferation by 50% against HIV; Range = 2-3. It is filed as functional, organism-based. Particulars: Human immunodeficiency virus 1.
Test [4] has as its system Human immunodeficiency virus. Description: Compound concentration required to inhibit the viral cell proliferation by 50% against HIV; Range = 0.3-0.5. The test is classed as functional, organism-based. The settings on record: Human immunodeficiency virus 1.

Consider `Nc1nc(=O)n([C@@H]2C=C[C@H](CO)O2)cc1F` [ELVUCITABINE], for which, in test [1], the ID50 ratio worked out at 9. The EC50 in the test with Hepatitis B virus amounted to 8 nM; in test [2] it was 100 nM. The IC50 in the test with CCRF-CEM was determined as 7000 nM.

With `Nc1ccn([C@@H]2CS[C@H](CO)O2)c(=O)n1` [LAMIVUDINE], in test [1], the ID50 ratio is over 100. Moreover, the EC50 in test [3] came to 2000 nM; in the test on Hepatitis B virus, 30 nM. For the same compound, the IC50 with CCRF-CEM was found to be 50000 nM.

In the case of `Nc1nc(=O)n([C@@H]2CC[C@H](CO)O2)cc1F`, the values for the EC50 (in test [4]; in the test on Hepatitis B virus) were 300 nM and 36 nM, respectively. In addition, the ID50 ratio in test [1] was over 100. In the test with CCRF-CEM, the IC50 stood at 67000 nM.

The values above are taken from ChEMBL document CHEMBL1130851, “Synthesis and biological evaluation of a series of 2'-fluorinated-2',3'-dideoxy-2',3'-didehydro-(L)-nucleosides” (Bioorg Med Chem Lett, 1998).
